The text below walks through data of patent publication US9534059B2, “TIKI inhibitors” (Children's Medical Center Corporation, priority 2012, dated 2017).

What all share (type): in vivo
Data set [1] has as its target T1, Tiki1 (Xenopus tropicalis, UniProt F6PTN1).
T1 construct: Thus the endogenous Tiki1 in the Organizer acts in both Wnt-producing and Wnt-responding cells; endogenous in cells; host or cells: Xenopus embryos (dorsal blastomeres / organizer)
T1 sequence (F6PTN1 24-480): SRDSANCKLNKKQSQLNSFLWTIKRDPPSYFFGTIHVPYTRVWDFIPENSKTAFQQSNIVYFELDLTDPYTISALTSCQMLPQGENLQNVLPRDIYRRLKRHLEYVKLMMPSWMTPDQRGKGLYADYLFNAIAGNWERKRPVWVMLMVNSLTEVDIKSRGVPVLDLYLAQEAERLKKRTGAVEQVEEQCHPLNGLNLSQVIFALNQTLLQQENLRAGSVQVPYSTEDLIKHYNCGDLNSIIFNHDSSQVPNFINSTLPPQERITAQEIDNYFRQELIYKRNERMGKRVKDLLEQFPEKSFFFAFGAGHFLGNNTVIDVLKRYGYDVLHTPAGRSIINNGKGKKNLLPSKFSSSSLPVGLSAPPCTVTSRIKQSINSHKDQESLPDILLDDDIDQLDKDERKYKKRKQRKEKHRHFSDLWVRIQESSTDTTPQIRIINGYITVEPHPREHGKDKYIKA
The data set is described as follows: Anterior neural marker expression at stage 16 in MO-injected embryos, whole mount in situ hybridization (FIG. 3I). As for the experimental part: (I) Tiki1 is required for anterior neural patterning. 20 ng of control MO or Tiki1MO plus fluorescein dextran (FLD, as a lineage tracer) were injected into one dorsal blastomere at the 8-cell stage. 50 pg of HA*Tiki1 mRNA were injected into the dorsal-animal blastomeres at the 4-cell stage in rescue experiments. Injected embryos were collected at stage 16 and subjected for whole mount in situ hybridization. Expression of forebrain markers BF1 and Otx2 (not shown) and the midbrain marker Ent was reduced in the Tiki1MO-injected half and was rescued by HA*Tiki1.
Procedures for embryo manipulation, reverse transcription PCR and in situ hybridization were performed as previously described (Tamai et al., 2000). The arrayed Xenopus tropicalis full length cDNAs (Voigt et al., 2005) were used for the screening as performed previously (Kato et al., 2002). cDNA pools (in the CS107 vector) that contain 96 independent clones were transcribed in vitro using SP6 polymerase, and the resulting mRNA pools were injected into the dorsal side of the embryo at 4-cell stage at the dose of 10 ng RNA/embryo. Injected embryos were scored at stage 30-31 for enlarged or diminished anterior development. The positive pools were divided into smaller pools and the same process was repeated till a single cDNA was identified.
The following morpholino oligonucleotides were used: Tiki1 MO: 5′-[…]-3′ (SEQ ID NO:33); standard control MO: 5′-[…]-3′ (SEQ ID NO:34) (Gene Tools, LLC). RT-PCR primers for XTiki1: Forward, 5′-[…]-3′(SEQ ID NO:35), Reverse, 5′-[…]-3′(SEQ ID NO:36); human TIKI1: Forward, 5′-[…]-3′(SEQ ID NO:37), Reverse, 5′-[…]-3′(SEQ ID NO:38); human TIKI2: Forward, 5′-[…]-3′(SEQ ID NO:39), Reverse, 5′-[…]-3′(SEQ ID NO:40).
The fact that Tiki1 is specifically expressed in, and is required for function of, the head organizer implies that Tiki1 has a role in anterior neural patterning. Tiki1MO were injected with fluorescein dextran (FLD, as a lineage tracer) into one dorsal-animal blastomere at the 8-cell stage and analyzed expression of anterior neural markers at stage 16. Tiki1MO suppressed, in the injected half of the embryo, the expression of forebrain marker BF1 and Otx2 (FIG. 3I and Table 3). […] HA*Tiki1 mRNA injection rescued the expression of BF1, Otx2, and Ent in Tiki1MO-injected embryos (FIG. 3I and Table 3).

Data set [2] has as its target T1, Tiki1. The data set is described as follows: Tiki1MO loss-of-function phenotype scoring in embryos. The following applies: 20 ng into two dorsal blastomeres of 8-cell stage embryos. As for the experimental part: 20 ng of control MO, Tiki1MO or Tiki1MO together with 50 pg of HA-Tiki1 mRNA was injected into two dorsal blastomeres at the 8-cell stage and the phenotype was scored at stage 42. Lateral view (left) and dorso-anterior view (right) are shown. Con, control.
(C) Statistical data of the Tiki1MO phenotype.
(§1) 20 ng of Tiki1MO were injected into two dorsal blastomeres of 8-cell stage embryos. […] Co-injection of HA*Tiki1 mRNA rescued Tiki1MO phenotypes (FIGS. 3B and 3C). Supporting a role of Tiki1 in Wnt inhibition during head formation, Dkk1 mRNA injection also rescued Tiki1MO anterior deficiency phenotypes (FIG. 3E).

The target in data set [3] is T1, Tiki1. The data set is described as follows: MO block of Tiki1 protein synthesis in animal caps, Western blotting. Conditions: animal caps stage 10. As for the experimental part: (A) 500 pg mRNA for Tiki1-FLAG (targeted by MO) or HA*Tiki1 (resistant to MO) were injected with or without the Tiki1MO (5, 10, 20, 40 ng) into the animal pole at the 2-cell stage, and animal caps were dissected at stage 10 for Western blotting. MO, morpholino antisense oligonucleotide.
as §1
(In general: A western blot detects proteins with antibodies after separation by electrophoresis.)

Data set [4] deals with T1, Tiki1. Briefly: S01234-luciferase Wnt-responsive reporter assay in embryos with Tiki1MO knockdown. The following applies: 20 ng MO in Xwnt8-producing or Xwnt8-responding cells. The procedure:
(C) The endogenous Tiki1 acts in Wnt-producing cells. Tiki1MO or control MO (20 ng) was co-injected with CS2+Xwnt8 DNA (40 pg) into a single dorsal blastomere at the 8-cell stage, while 501234-Luciferase or S0-luciferase (100 pg) plus TK-Renilla (1.25 pg) reporter DNAs were injected into a neighboring dorsal blastomere.
(D) The endogenous Tiki1 acts in Wnt-responding cells. S01234-luciferase or S0-luciferease and TK-Renilla reporter DNAs were co-injected with Tiki1MO or control MO into a single dorsal blastomere, while CS2+Xwnt8 was injected into a neighboring dorsal blastomere. Luciferase readings were normalized to Renilla.
The same question was addressed complementarily via Tiki1MO knockdown in dorsal blastomeres whose progenies expresses Tiki1 endogenously. At the 8-cell stage, an Xwnt8 expression plasmid (which transcribes Xwnt8 after mid-blastula transition) plus the Tiki1MO (or control MO) were co-injected into a single blastomere (i.e., to knock down Tiki1 in Xwnt8-producing cells), and the S01234-luciferase plasmid was injected into the neighboring blastomere. Alternatively the Xwnt8 plasmid was injected into a single blastomere, and the 501234-luciferase reporter plus Tiki1MO or control MO was co-injected into the neighboring blastomere (i.e., to knock down Tiki1 in Xwnt8-responding cells).

Take “Tiki1 MO: morpholino antisense oligonucleotide against Tiki1, 5′-CCAAATGATTACCATCATAGCTCAG-3′ (SEQ ID NO:33) (all phosphorodiamidate morpholino (PMO))”: in the data set with Tiki1 [1] (gene BF1, stage 16), the “Whole embryos displaying change in gene expression: BF1 Absent, Percentage (%)” value was found to be 63%; the “Whole embryos displaying change in gene expression: BF1 NC (No Change), Percentage (%)” value stood at 14%; the “Whole embryos displaying change in gene expression: BF1 Reduced, Percentage (%)” value is given as 23%; the “Whole embryos displaying change in gene expression: BF1 increased, Percentage (%)” value stood at 0%. Moreover, in the data set with Tiki1 [1] (gene En-2, stage 16), the “Whole embryos displaying change in gene expression: En-2 Absent, Percentage (%)” value turned out to be 40%; the “Whole embryos displaying change in gene expression: En-2 NC (No Change), Percentage (%)” value is on record as 35%; the “Whole embryos displaying change in gene expression: En-2 Reduced, Percentage (%)” value is listed as 25%; the “Whole embryos displaying change in gene expression: En-2 increased, Percentage (%)” value is on record as 0%. Besides, in the data set with Tiki1 [1] (gene HoxB9, stage 16), the “Whole embryos displaying change in gene expression: HoxB9 Absent, Percentage (%)” value was 0%; the “Whole embryos displaying change in gene expression: HoxB9 NC (No Change), Percentage (%)” value was determined as 100%; the “Whole embryos displaying change in gene expression: HoxB9 Reduced, Percentage (%)” value came to 0%; the “Whole embryos displaying change in gene expression: HoxB9 increased, Percentage (%)” value was 0%. For the same substance, in the data set with Tiki1 [1] (gene Otx2, stage 16), the “Whole embryos displaying change in gene expression: Otx2 Absent, Percentage (%)” value amounted to 35%; the “Whole embryos displaying change in gene expression: Otx2 NC (No Change), Percentage (%)” value came to 35%; the “Whole embryos displaying change in gene expression: Otx2 Reduced, Percentage (%)” value came to 30%; the “Whole embryos displaying change in gene expression: Otx2 increased, Percentage (%)” value is listed as 0%. Further, the “Injected embryos that developed anterior defects” value in the data set with Tiki1 [2] was “roughly 50%”. Further, the “Synthesis of exogenously expressed Tiki1-FLAG” value with Tiki1 [3] (5, 10, 20, 40 ng MO) is given as “specifically blocked the synthesis”. Also, the “Synthesis of HA*Tiki1 (mRNA lacking the MO complementary sequence)” value with Tiki1 [3] is given as “unable to block the synthesis”. Besides, the “XWnt8 response of S01234-luciferase reporter” value with Tiki1 [4] is “enhanced”.
